{"source": "patent US20260265055A1", "about": "“Sulfine-Based Compounds for Generating Hydrogen Persulfide” (Brown University, priority 2023, published 2026)", "key": {"[1]": {"assay": "SSP4 fluorescence assay to determine generation of H2S2 in buffer", "details": "SSP4 5 μM", "excerpt": "To further evaluate the specificity of TTS in converting H2S to H2S2, SSP4 was used to monitor the formation of H2S2 in this reaction and the results were compared with a series of controls. Details of the SSP4 experiments are provided later herein. SSP4 is a well-established fluorescent sensor for sulfane sulfurs including H2S2. See Shieh, M. et al., Shining a light on SSP4: a comprehensive analysis and biological applications for the detection of sulfane sulfurs. Redox Biol. 2022, 56, 102433. […] Without wishing to be bound by scientific theory, it is believed that thiols would compete with SSP4 to react with H2S2, thereby causing decreased signals.\nSSP4 was dissolved in DMSO to obtain a 200 μM stock solution. CTAB was dissolved in ethanol to yield a 2 mM stock solution. TTS and TT were dissolved in DMSO to make 1 mM stock solutions. Na2S, Na2S2, and L-cysteine were prepared in MilliQ H2O to obtain stock solutions at 2 mM, 1 mM, and 4 mM, respectively. 50 mM PBS buffer was added to individual wells of a black polystyrene, flat-bottomed clear 96-well plate, followed by TTS (25 μM) or TT (25 μM), and Na2S (50 μM), cysteine (100 μM), or Na2S2 (25 μM). For the interference assay, TTS or TT (25 μM) were added to wells with or without Na2S (50 μM). Samples were mixed by pipetting up and down and incubated in the dark at room temperature (rt) for 30 min. Next, CTAB (50 μM) was added to all wells followed by SSP4 (5 μM), and samples were mixed by pipetting up and down. The final volume was 200 μL in each well. Samples were then incubated in the dark at room temperature for another 30 min before being measured on a Molecular Devices SpectraMax iD3 Multi-Mode Microplate Reader (emission 525 nm; excitation 485 nm; integration time […], low PMT sensitivity, attenuation 1, read height 1.00 mm)."}, "[2]": {"assay": "Oxidation of TT to TTS by ROS, UV-Vis (339 nm)", "format": "physicochemical", "details": "for k2 (TT oxidation rate constant): PBS pH 7.4", "description": "TT was treated with H2O2, the most prevalent oxidant in biology. Stock solutions for hydrogen peroxide (H2O2), t-butyl hydroperoxide (^tBuOOH), peracetic acid (AcOOH), and sodium hypochlorite (NaOCl), were prepared in deionized water. H2O2 was diluted from a commercially available solution (30%). The concentration of H2O2 was determined using the absorption at 240 nm (ε=[…]). ^tBuOOH was diluted from commercially available solutions (70%). AcOOH was diluted from commercially available solutions (32%). NaOCl was diluted from commercially available solution containing 11-15% available chlorine. The concentration of HOCl was determined using the absorption at 292 nm (ε=[…]).\nTT was dissolved in DMSO to afford a 10 mM stock solution. For H2O2, ^tBuOOH and AcOOH, substrate TT (10 μM) and ROS (1 mM) were mixed in PBS buffer, pH=7.4 with DMSO (1%) under room temperature. For NaClO, TT (100 μM) and NaClO (1 mM) were mixed in PBS buffer, pH=7.4 with DMSO (1%) under room temperature. The rate of production of TTS was detected by UV-Vis spectrum (λ=339 nm) based on the decrease of TT. A pseudo-first order reaction was assumed; the second-order k constant (k2) was calculated using the method described below.\n(§1) The transformation from TT to TTS was clean. The progress of the reaction was monitored by UV-Vis spectra and the reaction rate constant (k2) was measured to be […]. The oxidation of TT by several other oxidants including t-BuOOH, AcOOH, and OCl^− was measured and the TT oxidation rate constants k2 are summarized in Table 1. ^aThe rate constant was estimated."}, "[3]": {"assay": "NMR monitoring of the oxidation of TT to TTS", "format": "physicochemical", "details": "TT 20 mM in CD3CN/D2O (1:1) with H2O2, room temperature", "description": "To an NMR tube, the solution of TT (0.2 mmol, final concentration is 20 mM) in CD3CN/D2O (1:1) was added, followed by adding H2O2 (10 μM, 20 μM). The NMR tube was shacked immediately and incubated at room temperature for 0 min, 30 min, 3 h, and 24 h.\nas §1"}, "HeLa cells": {"tested_on": "HeLa cells", "assay": "Live cell imaging of H2S2 formation with SSP4", "format": "cell-based", "details": "30 min", "description": "HeLa cells were seeded at ~7000 cells/well in a 96-well clear flat-bottomed BioLite plate (ThermoFisher Scientific, #130188) in DMEM/F12 (1:1) (Gibco, Invitrogen, #11330-032) medium supplemented with 10% fetal bovine serum (FBS) at 37° C., 5% CO2 overnight.\nPreparation before cell treatment: Na2S and Na2S2 stocks were prepared at 10 mM in sterile 1×PBS. TTS and TT were prepared at 10 mM concentrations in DMSO. They were then diluted to 50 μM concentrations in serum-free Fluorobrite DMEM in individual Eppendorf tubes (0.5% DMSO). Na2S (final concentration=100 μM) was added to the Eppendorf tube containing Fluorobrite DMEM and TTS or TT immediately before being added to the cells. Compounds were mixed by pipetting up and down prior to cell addition.\nCell treatment: Culturing media was aspirated from all wells, and cells were washed twice with 1×PBS. Compounds were added to cells (200 μL/well) and incubated for 30 min at 37° C., 5% CO2. While cells were incubating, SSP4 treatment was prepared by first adding 5 mM CTAB in ethanol to Fluorobrite DMEM followed by 6.125 mM SSP4 in DMSO to final concentrations of 100 μM and 5 μM, respectively, in a tube. The final volume was 5 mL (0.08% DMSO). Compounds were mixed by pipetting up and down prior to cell addition. After incubation, media was aspirated, and cells were washed twice with 1×PBS. SSP4 treatment was added to all wells (100 μL/well), and cells were incubated for 30 min at 37° C., 5% CO2 for 30 min. Media was then aspirated, and cells were washed three times with 1×PBS. Fluorobrite DMEM was added to all wells before imaging on the Keyence All-in-One Fluorescence Microscope (BZ-X810) (excitation: 470/40 nm; emission: 525/50 nm).\nAs shown in FIGS. 4(A)-(D), HeLa cells were treated with TTS, TTS+H2S, or TT for 30 min before the fluorescent sensor SSP4 was applied to the cells to monitor the formation of H2S2. […] Na2S2 was used as the positive control in this study (FIG. 4D). Other control studies including TT+H2S, H2S only, and SSP4 only were also performed. […] FIG. 4H is a graph of fluorescence intensities of SSP4 staining. Data are mean values ±SEM calculated using ImageJ. (n=9, where three different images were obtained from each of three samples and quantified)."}}}
{"smiles": "COC(=O)c1ccc(=S)sc1", "note": "[TT, methyl 2-thioxo-2H-thiopyran-5-carboxylate]", "values": [{"measurement": "SSP4 fluorescence response (H2S2 formation)", "setting": "[1]; 25 μM compound + 50 μM Na2S (H2S), PBS", "result": "No fluorescence"}, {"measurement": "SSP4 fluorescence response (sulfane sulfur formation)", "setting": "[1]; 25 μM compound + 100 μM Cys", "result": "No fluorescence"}, {"measurement": "SSP4 fluorescence response (H2S2 formation)", "setting": "[1]; 25 μM compound only", "result": "No fluorescence"}, {"measurement": "k2 (TT oxidation rate constant)", "setting": "[2]; ROS AcOOH 1 mM, TT 10 μM", "result": 13.9, "unit": "M⁻¹ s⁻¹"}, {"measurement": "k2 (TT oxidation rate constant)", "setting": "[2]; ROS H2O2 1 mM, TT 10 μM", "result": 0.1, "unit": "M⁻¹ s⁻¹"}, {"measurement": "k2 (TT oxidation rate constant)", "setting": "[2]; ROS OCl^− (NaClO 1 mM), TT 100 μM, rate constant was estimated", "result": ">1.0 × 10^3 M^−1 s^−1 a"}, {"measurement": "k2 (TT oxidation rate constant)", "setting": "[2]; ROS ^tBuOOH 1 mM, TT 10 μM", "result": 0.01, "unit": "M⁻¹ s⁻¹"}, {"measurement": "reaction rate constant (k2) of TT oxidation by H2O2", "setting": "[2]; UV-Vis, TT 10 μM, H2O2 1 mM, PBS pH 7.4, room temperature", "result": 0.1, "unit": "M⁻¹ s⁻¹"}, {"measurement": "time to completion of TT to TTS oxidation (NMR)", "setting": "[3]", "result": 24, "unit": "h"}, {"measurement": "SSP4 fluorescence in HeLa cells", "setting": "HeLa cells; compound 50 μM + Na2S 100 μM", "result": "Obvious fluorescence in these samples was not observed"}, {"measurement": "SSP4 fluorescence in HeLa cells", "setting": "HeLa cells; compound only", "result": "did not show obvious fluorescence"}]}
